According to the supplement of paper PMC11061612:

Key:
Assay in all cases: combination Emax (second highest fraction inhibited in the dose matrix, 72 h); higher = more inhibition; extreme values may be limits of the assay
[1] = tested on: NCI-H2066 (Squamous Cell Lung Carcinoma)
How it was run: (§1)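 Cell lines grown in DMEM/F12 or RPMI with 10% FBS were plated in 1536-well plates and held 24 hours at 37°C, 5% CO2 before 72 hours of exposure to two-drug dose matrices, with DMSO typically at 0.2%. CellTiter-Glo 2.0 luminescence gave viability, which was converted to inhibition. Vehicle wells were set to 0 and blank wells to 1. Combination Emax is the second-highest inhibition in the matrix, and Bliss excess is the observed combination effect minus the expected EA + EB − EA·EB, where EA and EB are the single-agent effects.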

[2] = tested on: NCI-H1650 (Lung Adenocarcinoma)
How it was run: as §1

[3] = tested on: COLO-320-HSR (Colorectal Carcinoma)
How it was run: as §1

[4] = tested on: SK-MG-1 (Low Grade Glioma)
How it was run: as §1

[5] = tested on: HCC1954 (Breast Carcinoma)
How it was run: as §1

[6] = tested on: TT (Thyroid Gland Carcinoma)
How it was run: as §1

[7] = tested on: A3-KAW (B-Cell Non-Hodgkin's Lymphoma)
How it was run: as §1

FU97 (Gastric Carcinoma) = tested on: FU97 (Gastric Carcinoma)
How it was run: as §1

[8] = tested on: VCaP (Prostate Carcinoma)
How it was run: as §1

ARH-77 (Non-Cancerous) = tested on: ARH-77 (Non-Cancerous)
How it was run: as §1

[9] = tested on: NCI-H1693 (Lung Adenocarcinoma)
How it was run: as §1

[10] = tested on: NCI-H1666 (Lung Adenocarcinoma)
How it was run: as §1

[11] = tested on: ECC10 (Gastric Carcinoma)
How it was run: as §1

[12] = tested on: OS-RC-2 (Kidney Carcinoma)
How it was run: as §1

[13] = tested on: SISO (Cervical Carcinoma)
How it was run: as §1

[14] = tested on: NCI-H64 (Small Cell Lung Carcinoma)
How it was run: as §1

NY (Osteosarcoma) = tested on: NY (Osteosarcoma)
How it was run: as §1

[15] = tested on: SK-MES-1 (Squamous Cell Lung Carcinoma)
How it was run: as §1

[16] = tested on: ONS-76 (Other Solid Carcinomas)
How it was run: as §1

NCI-H2591 (Mesothelioma) = tested on: NCI-H2591 (Mesothelioma)
How it was run: as §1

Structure (SMILES)	combination Emax [1]	combination Emax [2]	combination Emax [3]	combination Emax [4]	combination Emax [5]	combination Emax [6]	combination Emax [7]	combination Emax (FU97 (Gastric Carcinoma))	combination Emax [8]	combination Emax (ARH-77 (Non-Cancerous))	combination Emax [9]	combination Emax [10]	combination Emax [11]	combination Emax [12]	combination Emax [13]	combination Emax [14]	combination Emax (NY (Osteosarcoma))	combination Emax [15]	combination Emax [16]	combination Emax (NCI-H2591 (Mesothelioma))
Cc1c2c(nn1C)CSCc1cc(n(C)n1)CSc1cc(c3ccccc3c1)OCCCc1c(C(=O)O)n(C)c3c-2c(Cl)ccc13 [AZD5991] + Cc1cc2ncnn2cc1Nc1ncc2c(n1)n(C1CCOCC1)c(=O)n2C [AZD7648] (first compound max 1 µM, 7x7, partner max 10 µM)	0.299	0.168	0.808	0.374	0.992	0.38	1	0.293	0.94	0.835	0.256	0.246	0.669	0.286	0.191	0.341	0.579	0.223	0.315	0.305
C[C@@H]1COCCN1c1cc(C2([S@](C)(=N)=O)CC2)nc(-c2ccnc3[nH]ccc23)n1 [AZD6738] + O=C(c1cc(Cc2n[nH]c(=O)c3ccccc23)ccc1F)N1CCN(C(=O)C2CC2)CC1 [Olaparib] (first compound max 10 µM, 7x7, partner max 10 µM)	0.388	0.349	0.475	0.552	0.353	0.419	0.984	0.332	0.374	0.911	0.298	0.331	0.54	0.435	0.595	0.692	0.607	0.696	0.894	0.348
Cc1cc2ncnn2cc1Nc1ncc2c(n1)n(C1CCOCC1)c(=O)n2C [AZD7648] + C=CCn1c(=O)c2cnc(Nc3ccc(N4CCN(C)CC4)cc3)nc2n1-c1cccc(C(C)(C)O)n1 [AZD1775] (first compound max 10 µM, partner max 1 µM)	0.339	0.417	0.744	0.594	0.483	0.475	0.896	0.397	0.533	0.969	0.323	0.357	0.797	0.419	0.577	0.89	0.548	0.711	0.589	0.368
Cc1cc2ncnn2cc1Nc1ncc2c(n1)n(C1CCOCC1)c(=O)n2C [AZD7648] + CCN(CCO)CCCOc1ccc2c(Nc3cc(CC(=O)Nc4cccc(F)c4)[nH]n3)ncnc2c1 [AZD2811] (first compound max 10 µM, 7x7, partner max 1 µM)	0.356	0.287	0.209	0.461	0.342	0.611	0.608	0.337	0.314	0.54	0.263	0.381	0.908	0.287	0.265	0.596	0.242	0.373	0.398	0.37
Cc1cc2ncnn2cc1Nc1ncc2c(n1)n(C1CCOCC1)c(=O)n2C [AZD7648] + CN(C)CCCOc1ccc(-c2ccc3ncc4c(c3c2)n(C2CCOCC2)c(=O)n4C)cn1 [AZD0156] (first compound max 10 µM, 7x7, partner max 1 µM)	0.321	0.25	0.27	0.359	0.307	0.41	0.597	0.382	0.265	0.54	0.222	0.431	0.323	0.261	0.16	0.279	0.286	0.28	0.26	0.334
Cc1cc2ncnn2cc1Nc1ncc2c(n1)n(C1CCOCC1)c(=O)n2C [AZD7648] + C[C@@H]1COCCN1C2=NC(=NC(=C2)C3(CC3)[S@](=N)(=O)C)C4=C5C=CNC5=NC=C4 [AZD6738] (first compound max 10 µM, 7x7, partner max 10 µM)	0.379	0.324	0.616	0.584	0.568	0.604	0.969	0.42	0.452	0.89	0.294	0.354	0.421	0.419	0.505	0.811	0.527	0.72	0.825	0.39
Cc1cc2ncnn2cc1Nc1ncc2c(n1)n(C1CCOCC1)c(=O)n2C [AZD7648] + O=C(c1cc(Cc2n[nH]c(=O)c3ccccc23)ccc1F)N1CCN(C(=O)C2CC2)CC1 [Olaparib] (first compound max 10 µM, 7x7, partner max 10 µM)	0.295	0.0772	0.073	0.238	0.161	0.161	0.656	0.291	0.141	0.522	0.172	0.0994	0.158	0.224	0.207	0.134	0.14	0.177	0.246	0.248
NC1(C(=O)N[C@@H](CCO)c2ccc(Cl)cc2)CCN(c2ncnc3[nH]ccc23)CC1 [Capivasertib] + CC(=O)c1c(C)c2cnc(Nc3ccc(N4CCNCC4)cn3)nc2n(C2CCCC2)c1=O [Palbociclib] (first compound max 10 µM, 7x7, partner max 10 µM)	0.507	0.351	0.263	0.62	0.74	0.447	0.846	0.358	0.514	0.705	0.485	0.382	0.506	0.454	0.201	0.332	0.161	0.5	0.557	0.364
NC1(C(=O)N[C@@H](CCO)c2ccc(Cl)cc2)CCN(c2ncnc3[nH]ccc23)CC1 [Capivasertib] + CC(C)n1c(=O)n(C)c2cnc3cc(F)c(-c4ccc(OCCCN5CCCCC5)nc4)cc3c21 [AZD1390] (first compound max 10 µM, 7x7, partner max 0.3 µM)	0.553	0.317	0.172	0.519	0.752	0.425	0.49	0.361	0.458	0.657	0.315	0.31	0.274	0.401	0.269	0.251	0.309	0.237	0.386	0.182
NC1(C(=O)N[C@@H](CCO)c2ccc(Cl)cc2)CCN(c2ncnc3[nH]ccc23)CC1 [Capivasertib] + CCN(CCO)CCCOc1ccc2c(Nc3cc(CC(=O)Nc4cccc(F)c4)[nH]n3)ncnc2c1 [AZD2811] (first compound max 10 µM, 7x7, partner max 1 µM)	0.534	0.351	0.174	0.607	0.87	0.544	0.674	0.369	0.543	0.748	0.36	0.388	0.86	0.445	0.477	0.668	0.257	0.36	0.589	0.297
NC1(C(=O)N[C@@H](CCO)c2ccc(Cl)cc2)CCN(c2ncnc3[nH]ccc23)CC1 [Capivasertib] + COc1nnc2ccc(N3CCC(c4ccc(OCCN5CCN(C)C(=O)[C@H]5C)cc4)CC3)nn12 [AZD5153] (first compound max 10 µM, 7x7, partner max 1 µM)	0.77	0.442	0.242	0.721	0.922	0.695	1	0.821	0.96	0.885	0.554	0.385	0.981	0.433	0.421	0.548	0.346	0.583	0.627	0.334
NC1(C(=O)N[C@@H](CCO)c2ccc(Cl)cc2)CCN(c2ncnc3[nH]ccc23)CC1 [Capivasertib] + C[C@@H]1COCCN1C2=NC(=NC(=C2)C3(CC3)[S@](=N)(=O)C)C4=C5C=CNC5=NC=C4 [AZD6738] (first compound max 10 µM, 7x7, partner max 10 µM)	0.626	0.541	0.507	0.668	0.859	0.484	0.992	0.482	0.567	0.927	0.44	0.44	0.498	0.481	0.586	0.861	0.645	0.855	0.852	0.482
NC1(C(=O)N[C@@H](CCO)c2ccc(Cl)cc2)CCN(c2ncnc3[nH]ccc23)CC1 [Capivasertib] + Cn1cnc2c(F)c(Nc3ccc(Br)cc3Cl)c(C(=O)NOCCO)cc21 [Selumetinib] (first compound max 10 µM, 7x7, partner max 10 µM)	0.685	0.358	0.214	0.681	0.805	0.587	0.698	0.397	0.487	0.674	0.44	0.623	0.506	0.439	0.269	0.321	0.305	0.768	0.873	0.469
